Measured values taken from ChEMBL document CHEMBL1201862, “PubChem BioAssay data set” (2004).
The source made the active and inactive calls.

How the values were obtained:
Nonstructural protein 1 = Nonstructural protein 1 (Influenza A virus, UniProt Q194T2); format: functional, Influenza A virus (A/California/07/2009(H1N1))
[1] = inhibitors of firefly luciferase expression or activity, dose response, H4 neuroglioma cells, luminescence (AID 1990); format: functional, cell-based
[2] = Luminescence Cell-Based Dose Response HTS to Identify Inhibitors of 5'UTR Stem-Loop Driven Prion Protein mRNA Translation in H4 Neuroglioblastoma Cells. [Related pubchem assays: 1827 (Project Summary), 1813 (Primary HTS)]; format: functional
[3] = cytotoxicity in HEK-293T cells, dose response, cytotoxicity control for TCR NF-kB inhibitor project, luminescence, T-cell screen hits (AID 489026); format: functional, cell-based;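 also: cells exposed to compound about 14 hours before the viability readout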
[4] = inhibitors of SNCA 5'UTR-driven reporter translation, confirmation, H4 neuroglioma cells, luminescence (AID 1988); format: functional, cell-based
[5] = (§1) Counterscreen for antagonists of the orexin 1 receptor (OX1R; HCRTR1): Fluorescence-based cell-based high throughput dose response assay to identify antagonists of the parental CHO cell line. [Related pubchem assays (depositor defined):AID434989, AID435008, AID463079, AID485270, AID492963, AID492964, AID492965, AID493232, AID504699, AID504701]; format: functional
CHO-K1 = test: as §1, with “Homogeneous time resolved fluorescence (HTRF)-based” for “Fluorescence-based”, “cell-based” for “cell-based high throughput”, “CHO-K1” for “CHO”; format: functional; conditions: Cricetulus griseus;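 also: potency for inhibition of ATP-stimulated IP1 production as antagonists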
[6] = molecular target: T1, Orexin/Hypocretin receptor type 1 (Homo sapiens, UniProt O43613); test: (§2) Fluorescence-based cell-based high throughput dose response assay for antagonists of the orexin 1 receptor (OX1R; HCRTR1). [Related pubchem assays (depositor defined):AID434989, AID435008, AID463079, AID485270, AID492963, AID492964, AID492965, AID493232, AID504717, AID504718]; format: functional
T1 sequence (O43613 whole entry): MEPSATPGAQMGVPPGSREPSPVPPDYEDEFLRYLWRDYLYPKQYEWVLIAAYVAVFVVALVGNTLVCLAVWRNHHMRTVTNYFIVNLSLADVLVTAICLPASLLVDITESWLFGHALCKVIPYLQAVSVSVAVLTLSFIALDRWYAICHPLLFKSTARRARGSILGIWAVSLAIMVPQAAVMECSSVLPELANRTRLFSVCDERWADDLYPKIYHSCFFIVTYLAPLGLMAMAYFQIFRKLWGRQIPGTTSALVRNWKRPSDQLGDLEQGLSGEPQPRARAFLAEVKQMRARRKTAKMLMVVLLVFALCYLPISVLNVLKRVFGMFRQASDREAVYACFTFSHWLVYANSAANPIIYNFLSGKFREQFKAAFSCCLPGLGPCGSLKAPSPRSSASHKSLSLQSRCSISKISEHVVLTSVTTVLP

[7] = molecular target: T1, Orexin/Hypocretin receptor type 1; test: as §2, with “Homogeneous Time Resolved Fluorescence (HTRF)-based” for “Fluorescence-based”; format: functional
[8] = inhibitors of PGC1a acetylation in cells, dose response, cell-based, cherry-picked samples (AID 720514); format: functional;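 also: potency may reflect raised or lowered acetylation signal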
[9] = system: Streptococcus sp. 'group A'; test: growth inhibition of control SK(-) GAS strain, dose response, counter-screen for streptokinase expression inhibitor project, luminescence, kanamycin, BacTiterGlo, confirmation (AID 1900); format: functional, organism-based
[10] = molecular target: T2, Zinc finger protein mex-5 (Caenorhabditis elegans, UniProt Q9XUB2); test: MEX-5/TCR-2 RNA interaction inhibitors, dose response, biochemical, C. elegans, fluorescence polarization (AID 1960)
T2 sequence (Q9XUB2 whole entry): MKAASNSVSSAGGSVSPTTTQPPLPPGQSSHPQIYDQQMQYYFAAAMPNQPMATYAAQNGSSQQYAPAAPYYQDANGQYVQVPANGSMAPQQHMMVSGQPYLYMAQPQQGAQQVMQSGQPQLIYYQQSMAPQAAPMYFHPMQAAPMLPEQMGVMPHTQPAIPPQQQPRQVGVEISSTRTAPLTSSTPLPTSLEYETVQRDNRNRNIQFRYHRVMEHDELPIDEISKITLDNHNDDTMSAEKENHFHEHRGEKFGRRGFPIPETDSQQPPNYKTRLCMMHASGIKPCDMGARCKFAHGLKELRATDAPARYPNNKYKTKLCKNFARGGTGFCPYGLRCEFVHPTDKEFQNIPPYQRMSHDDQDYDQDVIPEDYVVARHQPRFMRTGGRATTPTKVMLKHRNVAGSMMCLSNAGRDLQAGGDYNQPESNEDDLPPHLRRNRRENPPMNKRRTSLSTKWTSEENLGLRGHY

[11] = molecular target: T3, RNA-binding protein pos-1 (Caenorhabditis elegans, UniProt G5EF15); test: inhibitors of POS-1/mex-3 RNA binding, dose response, biochemical, fluorescence polarization (AID 1964);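 also: purified POS-1 fused to maltose binding protein made in E. coli; potency of compounds blocking POS-1 binding to fluorescent RNA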
T3 sequence (G5EF15 whole entry): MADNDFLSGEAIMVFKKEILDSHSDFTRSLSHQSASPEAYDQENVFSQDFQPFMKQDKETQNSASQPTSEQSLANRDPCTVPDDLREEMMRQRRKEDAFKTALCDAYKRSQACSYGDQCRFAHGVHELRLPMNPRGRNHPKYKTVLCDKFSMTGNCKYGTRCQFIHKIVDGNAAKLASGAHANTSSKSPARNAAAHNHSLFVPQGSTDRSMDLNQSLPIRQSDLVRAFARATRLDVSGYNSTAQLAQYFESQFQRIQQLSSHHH

Streptococcus = test: Group A Streptococcus viability loss, dose response, counter-screen for streptokinase expression inhibitor project, luminescence, BacTiterGlo (AID 1915); format: functional, organism-based;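 also: potency for reduction of bacterial viability or growth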
[12] = P. falciparum Dd2 growth inhibitors, dose response, SYBR Green, cherry-picked samples (AID 1159567); format: functional, cell-based
[13] = cytotoxicity in KRAS-transformed pancreatic duct cells, primary screen, cell-based, fluorescence, HTS (AID 431); format: functional; conditions: Homo sapiens;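 also: cell line used: HPDE-C7K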
[14] = cytotoxicity in HPDE-C7 cells, cell-based, fluorescence, HTS (AID 430); format: functional; conditions: Homo sapiens
[15] = THP-1 cell cytotoxicity, dose response, cytotoxicity control for Vif-APOBEC3G degradation inhibitor project, THP-1 cells (AID 1117359); format: functional; conditions: Human immunodeficiency virus 1, THP-1
Protein Tat = molecular target: T4, Protein Tat (Human immunodeficiency virus type 1 group M subtype B (isolate HXB2)(HIV-1), UniProt P04608); format: functional;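 also: tat binding to TAR RNA read out by fluorescence polarization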
T4 sequence (P04608 whole entry): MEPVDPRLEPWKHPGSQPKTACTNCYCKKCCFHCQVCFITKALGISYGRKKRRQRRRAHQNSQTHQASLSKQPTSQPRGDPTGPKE

[16] = molecular target: T5, Glutathione-S-transferase (Schistosoma japonicum, UniProt Q26513); test: biotin-GST/anti-GST TR-FRET signal inhibitors, dose response, artefact control for Vif-APOBEC3G degradation inhibitor project, biochemical (AID 1117362); format: functional
T5 sequence (Q26513 whole entry): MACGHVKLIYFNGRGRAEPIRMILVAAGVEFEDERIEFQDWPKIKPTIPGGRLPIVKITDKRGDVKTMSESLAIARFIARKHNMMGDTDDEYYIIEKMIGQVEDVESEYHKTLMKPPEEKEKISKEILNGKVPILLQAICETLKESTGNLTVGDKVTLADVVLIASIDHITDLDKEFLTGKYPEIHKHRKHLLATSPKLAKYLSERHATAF

Sequence of Nonstructural protein 1 (Q194T2 whole entry): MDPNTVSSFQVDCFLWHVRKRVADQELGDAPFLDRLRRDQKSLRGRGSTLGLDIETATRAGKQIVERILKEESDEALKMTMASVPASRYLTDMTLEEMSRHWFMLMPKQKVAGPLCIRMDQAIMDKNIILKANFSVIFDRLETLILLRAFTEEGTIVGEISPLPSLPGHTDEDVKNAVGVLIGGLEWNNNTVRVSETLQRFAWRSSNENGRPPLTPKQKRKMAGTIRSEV

In the case of Cc1ccccc1/C(O)=C(\C#N)N=Nc1c(C)n(C)n(-c2ccccc2)c1=O, the IC50 (Nonstructural protein 1) is reported as 10.9 µM (active).
In the case of COC(=O)c1ccc(C)c(NS(=O)(=O)c2ccc3c(c2)OCCO3)c1, the EC50 [1] is reported as 8.4 µM (inconclusive), the EC50 [2] is reported as 9.9 µM (active) and the IC50 [3] is reported as > 80 µM (inactive). The EC50 [4] was 1.3 µM (active).
In the case of O=C1N[C@@H](c2ccccc2)COC(=O)[C@@H](Cc2ccc(F)cc2)C/C=C\C[C@@H]1CC(=O)N(CCO)Cc1ccccc1, the IC50 [5] is reported as > 49.7 µM (inactive), the IC50 (CHO-K1) is reported as > 66.2 µM (inactive) and the IC50 [6] is reported as 13.8 µM (inactive). For the same compound, the IC50 [7] was 12 µM (inactive).
In the case of COc1ccc(-c2cnc3c(c2)C(=O)N([C@H](C)CO)C[C@H](C)[C@@H](CN(C)C(=O)C2CCC2)O3)cc1, the AC50 [8] is reported as 25.8 µM (active).
For Cc1ncc(CO)c(/C=N/NC(=O)c2cc(Br)ccc2O)c1O, the EC50 [9] was 1.39 µM (active), the EC50 [10] was 5.72 µM (active) and the EC50 [11] was > 300 µM (not active). The EC50 (Streptococcus) was 1.06 µM (active) and the IC50 (Nonstructural protein 1) was 11.3 µM (active).
In the case of COc1cc(/C=N/NC(=S)NCCN2CCOCC2)cc(OC)c1O, the IC50 (Nonstructural protein 1) is reported as 70.1 µM (active).
In the case of C[C@@H]1CN([C@H](C)CO)C(=O)c2cc(-c3ccc(C#N)cc3)cnc2O[C@H]1CN(C)C(=O)Nc1ccc(C(F)(F)F)cc1, the AC50 [12] is reported as 21.2 µM (active).
With CC(C)(C)[S@+]([O-])N1Cc2cc(C(=O)N[C@@H]3CCN(Cc4ccccc4)C3)nc(-c3cccc(-c4ccncc4)c3)c2[C@@H]1CCO the AC50 [12] was 4.68 µM (active).
In the case of Nc1ccc(N2CCCCCC2)cc1, the EC50 [13] is reported as 15.4 µM (active), the EC50 [14] is reported as 13.3 µM (active) and the CC50 [15] is reported as 13.3 µM (active). The IC50 (Protein Tat) was 11.8 µM (inconclusive) and the IC50 [16] was 44.5 µM (active).
